# Test results taken from the supplement of paper PMC10307832.
# Assays:
# Test in all cases: relative viability (nuclei count vs DMSO), 5 days (fraction); higher = more cells survive
# [1] = compound: N#CC[C@H](C1CCCC1)n1cc(-c2ncnc3[nH]ccc23)cn1 [Ruxolitinib] + CC(=O)c1c(C)c2cnc(Nc3ccc(N4CCNCC4)cn3)nc2n(C2CCCC2)c1=O [Palbociclib] (partner 0.5 µM)
# How it was run: (§1)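 Relative viability was taken as the ratio of nuclei in treated wells to nuclei in vehicle wells. Lung cancer cell lines in 1536-well plates received compounds by pin tool one day after seeding, either one drug alone or a fixed anchor-drug dose plus five library-drug doses (not always all listed) in √10 steps. Nuclei were counted on 4× images after 5 days of treatment, and values are medians of duplicate plates.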
# [2] = compound: CS(=O)(=O)c1ccc(-c2cnc(N)c(C(=O)Nc3ccccc3)n2)cc1 [VE-821] + NC(=O)Nc1cc(-c2cccc(F)c2)sc1C(=O)N[C@H]1CCCNC1 [AZD7762] (partner 0.2 µM)
# How it was run: as §1
# [3] = compound: CS(=O)(=O)c1ccc(C(=O)Nc2ccc(Cl)c(-c3ccccn3)c2)c(Cl)c1 [Vismodegib] + CC(=O)c1c(C)c2cnc(Nc3ccc(N4CCNCC4)cn3)nc2n(C2CCCC2)c1=O [Palbociclib] (partner 0.5 µM)
# How it was run: as §1
# [4] = compound: CS(=O)(=O)c1ccc(C(=O)Nc2ccc(Cl)c(-c3ccccn3)c2)c(Cl)c1 [Vismodegib] + C[C@]1(O)C[C@@H](c2nc(-c3ccc4ccc(-c5ccccc5)nc4c3)c3c(N)nccn32)C1 [Linsitinib] (partner 1 µM)
# How it was run: as §1
Cell Line,relative viability ([1]; first compound 0.08 µM),relative viability ([1]; first compound 0.253 µM),relative viability ([1]; first compound 0.8 µM),relative viability ([1]; first compound 2.53 µM),relative viability ([1]; first compound 8 µM),relative viability ([2]; first compound 0.08 µM),relative viability ([2]; first compound 0.253 µM),relative viability ([2]; first compound 0.8 µM),relative viability ([2]; first compound 2.53 µM),relative viability ([2]; first compound 8 µM),relative viability ([3]; first compound 0.08 µM),relative viability ([3]; first compound 0.253 µM),relative viability ([3]; first compound 0.8 µM),relative viability ([3]; first compound 2.53 µM),relative viability ([3]; first compound 8 µM),relative viability ([4]; first compound 0.08 µM),relative viability ([4]; first compound 0.253 µM),relative viability ([4]; first compound 0.8 µM),relative viability ([4]; first compound 2.53 µM),relative viability ([4]; first compound 8 µM)
LC-2-ad,0.544,0.511,0.533,0.473,0.409,0.882,0.818,0.862,0.848,0.689,0.477,0.501,0.482,0.479,0.544,0.824,0.794,0.849,0.82,0.828
LCLC-97TM1,0.235,0.185,0.213,0.192,0.213,0.162,0.137,0.204,0.116,0.133,0.202,0.208,0.263,0.203,0.213,–,–,0.174,–,0.211
LCLC-103H,0.495,0.467,0.468,0.426,0.394,0.829,0.758,0.705,0.758,0.632,0.473,0.475,0.481,0.517,0.526,0.938,1.05,0.988,1.05,1.04
LK-2,0.863,0.696,0.787,0.701,0.686,0.477,0.392,0.282,0.415,0.252,0.72,0.708,0.607,0.83,0.745,0.427,0.49,0.539,0.46,0.378
LOU-NH91,0.61,0.526,0.52,0.532,0.53,0.796,0.711,0.823,0.717,0.681,0.536,0.582,0.496,0.523,0.553,0.926,0.972,0.916,0.951,0.961
LU99A,0.443,0.387,0.411,0.369,0.332,0.372,0.307,0.208,0.195,0.102,0.387,0.4,0.393,0.409,0.433,0.521,0.507,0.508,0.464,0.621
LXF-289,0.539,0.598,0.626,0.599,0.565,0.931,1.08,1.12,0.971,0.686,0.582,0.605,0.595,0.594,0.6,0.959,0.929,0.98,0.976,0.919
NCI-H23,0.538,0.485,0.604,0.426,0.34,0.18,0.148,0.153,0.14,0.126,0.505,0.439,0.544,0.412,0.522,0.591,0.511,0.643,0.488,0.677
NCI-H322M,0.503,0.488,0.536,0.645,0.563,0.565,0.488,0.361,0.382,0.366,0.455,0.465,0.459,0.506,0.509,0.771,1.01,0.975,0.958,0.924
NCI-H358,0.167,0.125,0.16,0.14,0.127,0.627,0.603,0.447,0.41,0.293,0.141,0.181,0.138,0.135,0.16,0.777,0.667,0.712,0.817,0.765
NCI-H441,0.218,0.206,0.302,0.241,0.309,1.28,0.966,0.93,0.69,0.478,0.203,–,0.196,0.243,0.24,0.419,0.562,0.48,0.508,0.653
NCI-H460,0.173,0.159,0.165,0.0961,0.155,0.568,0.411,0.217,0.117,0.0688,0.225,0.125,0.217,0.156,0.35,0.732,0.74,0.773,0.733,1.08
NCI-H647,0.523,0.443,0.44,0.344,0.346,0.46,0.235,–,0.217,0.0695,0.328,0.409,0.463,0.354,0.452,1.16,1.21,1.19,0.911,1.34
NCI-H650,0.325,0.339,0.347,0.317,0.321,0.873,0.954,0.992,0.836,1.04,0.359,0.323,0.309,0.338,0.341,0.868,0.799,0.679,0.994,0.949
NCI-H727,0.539,0.676,0.586,0.611,0.713,0.512,0.495,0.411,0.382,0.41,0.687,0.649,0.631,0.723,0.639,0.336,0.319,0.286,0.376,0.239
NCI-H838,0.254,0.223,0.227,0.164,0.159,0.944,0.859,0.771,0.727,0.692,0.214,0.225,0.227,0.261,0.273,0.869,0.967,0.992,0.99,1.02
SW 900,0.477,0.589,0.625,0.624,0.532,0.673,0.506,0.391,0.437,0.351,0.641,0.514,0.634,–,0.603,–,–,–,–,–
